Test results taken from ChEMBL document CHEMBL3877255, “Structure-activity relationship (SAR) study and design strategies of nitrogen-containing heterocyclic moieties for their anticancer activities” (Eur J Med Chem, 2017).
pIC50: −log10 of the molar value. ≈ marks a conversion by molar mass, not a printed value.

Experiments:
[1] = Cytotoxicity against human A549 cells measured after 3 days by MTT assay; assay type: functional; settings: A549, 72 h
[2] = Cytotoxicity against human MCF7 cells measured after 3 days by MTT assay; assay type: functional; settings: MCF7, 72 h
[3] = Cytotoxicity against human NCI-H157 cells by sulforhodamine-B assay; assay type: functional, cell-based
[4] = Cytotoxicity against human Calu1 cells by sulforhodamine-B assay; assay type: functional, cell-based; settings: Calu-1
[5] = Cytotoxicity against human MCF7 cells by MTT assay; assay type: functional, cell-based
[6] = Cytotoxicity against human DU145 cells by MTT assay; assay type: functional, cell-based; settings: DU-145
[7] = Cytotoxicity against human PC3 cells by MTT assay; assay type: functional, cell-based; settings: PC-3
[8] = Cytotoxicity against human MDA-MB-231 cells by MTT assay; assay type: functional, cell-based
[9] = Cytotoxicity against human HepG2 cells after 72 hrs by sulforhodamine-B assay; assay type: functional, cell-based; settings: HepG2, 72 h
[10] = Cytotoxicity against human A549 cells by sulforhodamine-B assay; assay type: functional, cell-based
[11] = Cytotoxicity against human HeLa cells measured after 24 hrs by MTT assay; assay type: functional, cell-based
[12] = target: cGMP-inhibited 3',5'-cyclic phosphodiesterase 3A (Homo sapiens, UniProt Q14432); test: Inhibition of human PDE3A using fluorescein-labelled cAMP as substrate measured after 60 mins by IMAP TR-FRET assay
[13] = Cytotoxicity against human MCF7 cells measured after 24 hrs by MTT assay; assay type: functional, cell-based; settings: MCF7, 24 h
[14] = Cytotoxicity against human HeLa cells measured after 3 days by MTT assay; assay type: functional; settings: 72 h

cGMP-inhibited 3',5'-cyclic phosphodiesterase 3A, sequence (Q14432 whole entry): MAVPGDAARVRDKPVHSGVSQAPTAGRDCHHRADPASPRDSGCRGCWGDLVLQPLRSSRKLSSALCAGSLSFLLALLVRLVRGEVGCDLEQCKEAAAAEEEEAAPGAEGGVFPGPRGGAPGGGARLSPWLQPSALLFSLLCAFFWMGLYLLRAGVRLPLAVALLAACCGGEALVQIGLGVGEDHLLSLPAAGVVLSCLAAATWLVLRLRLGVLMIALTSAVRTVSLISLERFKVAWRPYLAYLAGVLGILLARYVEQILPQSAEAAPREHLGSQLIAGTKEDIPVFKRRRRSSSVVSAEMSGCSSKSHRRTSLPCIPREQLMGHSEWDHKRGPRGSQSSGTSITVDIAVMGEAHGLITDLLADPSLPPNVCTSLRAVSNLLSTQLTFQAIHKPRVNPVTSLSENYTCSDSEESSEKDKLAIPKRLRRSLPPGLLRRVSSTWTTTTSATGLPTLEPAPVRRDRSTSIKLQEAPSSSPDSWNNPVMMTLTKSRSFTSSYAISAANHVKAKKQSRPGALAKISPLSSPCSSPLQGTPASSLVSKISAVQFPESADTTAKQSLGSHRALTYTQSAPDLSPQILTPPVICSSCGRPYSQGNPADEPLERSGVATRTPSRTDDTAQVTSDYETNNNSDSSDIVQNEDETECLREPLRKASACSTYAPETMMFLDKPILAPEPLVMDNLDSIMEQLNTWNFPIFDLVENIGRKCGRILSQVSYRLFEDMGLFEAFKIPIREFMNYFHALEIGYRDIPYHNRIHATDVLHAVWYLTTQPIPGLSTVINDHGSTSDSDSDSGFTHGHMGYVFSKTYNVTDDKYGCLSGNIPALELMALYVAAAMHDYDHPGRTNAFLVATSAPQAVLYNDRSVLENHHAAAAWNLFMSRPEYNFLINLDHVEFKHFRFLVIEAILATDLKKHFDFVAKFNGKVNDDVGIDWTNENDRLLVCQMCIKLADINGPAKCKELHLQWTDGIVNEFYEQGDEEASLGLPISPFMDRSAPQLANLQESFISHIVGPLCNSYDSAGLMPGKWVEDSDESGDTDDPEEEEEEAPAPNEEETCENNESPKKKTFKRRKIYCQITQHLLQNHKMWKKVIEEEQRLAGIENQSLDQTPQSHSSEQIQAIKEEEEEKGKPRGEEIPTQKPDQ

SMILES: Cc1ccc2nc3ccccc3c(Nc3cccc(Cl)c3)c2c1
- CC50 [1]: 188 µg/mL (≈ 588 µM)
- CC50 [2]: 212 µg/mL (≈ 667 µM)

SMILES: Cc1onc(-c2ccc([N+](=O)[O-])cc2)c1C(=O)/C=C/c1ccccc1Cl
- pIC50 [3]: 5.87
- pIC50 [4]: 5.68

SMILES: Clc1ccc(C2=NO[C@@]3(CCCCO3)[C@H]2Br)cc1
- pIC50 [5]: 4.25 to 4.37
- pIC50 [6]: 4.25 to 4.37
- pIC50 [7]: 4.25 to 4.37
- pIC50 [8]: 4.25 to 4.37

SMILES: COC(=O)c1ccccc1-n1c(N)c(C(N)=O)c(-c2ccc(N(C)C)cc2)cc1=O
- pIC50 [9]: 5.87

SMILES: Cc1onc(-c2ccc([N+](=O)[O-])cc2)c1C(=O)/C=C/c1ccccc1Br
- pIC50 [10]: 4.96
- pIC50 [3]: 5.14

SMILES: CCSc1ncc(-c2cc(-c3ccc(Br)cc3)[nH]c(=N)c2C#N)n1Cc1ccccc1
- pIC50 [11]: 4.46
- pIC50 [12]: 8.42
- pIC50 [13]: 4.30

SMILES: CC(C)NC(=O)c1cccc2c(Cc3cccc(Cl)c3)c3ccccc3nc12
- CC50 [1]: 100 µg/mL (≈ 257 µM)

SMILES: CC(C)NC(=O)c1cccc2c(Cc3ccc(C(=O)O)cc3)c3ccccc3nc12
- CC50 [14]: 47.5 µg/mL (≈ 119 µM)

SMILES: Clc1cccc(Cl)c1C1=NO[C@@]2(CCCCO2)[C@H]1Br
- pIC50 [5]: 4.25 to 4.37
- pIC50 [6]: 4.25 to 4.37
- pIC50 [7]: 4.25 to 4.37
- pIC50 [8]: 4.25 to 4.37

SMILES: COC(=O)c1ccccc1-n1c(N)c(C#N)c(-c2ccc(N(C)C)cc2)cc1=O
- pIC50 [9]: 7.70
